Measured values: patent US20220151935A1, “USE OF AMINO ACID BASED NUTRIENTS AND PHARMACEUTICAL COMPOSITION CONTAINING THE SAME” (priority 2018, published 2022)
Marks after values point to notes of the source that are not given here.

Tests used:
[1] = tested on: human liver cancer cells (HepG2); assay: Tumor weight and tumor inhibition in nude mice bearing HepG2; format: in vivo; settings: for Intratumoral injection Tumor inhibition rate / Intratumoral injection Tumor weight / Tumor inhibition rate of intraperitoneal injection: 5th day after last dose
Method: One of the core characteristics of tumors is heterogeneity. […] The corresponding negative control was normal saline.
(§1) They were injected intraperitoneally and intratumorally.
The negative control group was given normal saline. The compositions of the study drug are as shown in the table below: 4 types and concentrations of amino acid based nutrient single drugs (X % amino acid based nutrients), 18 types and concentrations of ineffective absorption drugs (Y % ineffective absorption drugs), 24 compositions comprising various types and concentrations of amino acid based nutrients and ineffectively absorption drugs (X % amino acid based nutrients/Y % ineffectively absorption drugs).
The negative control was normal saline. The compositions of 16 study drugs, as shown in the table below, comprise: a 5-fluorouracil single drug of 4 varying concentrations (X % 5-fluorouracil), and an amino acid based nutrient with 5 varying concentrations (Y % amino acid based nutrient), 7 compositions consisting of 5-fluorouracil of varying concentrations and an amino acid based nutrient of varying concentrations (X % 5-fluorouracil/Y % amino acid based nutrient). […] The dose at each time was: 5-fluorouracil 50 mg/kg, glutathione ≤1 g/kg, and an injection volume was ≤150 μl/mouse.
The negative control was normal saline, the positive control was 1% 5-fluorouracil, and the study drug was 1% methylene blue/10% amino acid based nutrient composition (the type of the amino acid based nutrient is variable). The amino acid based nutrients in the compositions used in study groups 1-13 were: arginine, glycine, cysteine hydrochloride, valine, threonine, proline, histidine hydrochloride, phenylalanine, lysine, leucine, alanine, glutathione, serine, and the study drug used in the study group 14 was 1% methylene blue/5% arginine/5% glycine.

[2] = tested on: pancreatic cancer cells PANC-1; assay: Tumor inhibition in nude mice bearing pancreatic cancer cells PANC-1; format: in vivo; settings: for Tumor inhibition rate: Table 4, avg tumor volume 136 mm^3, intratumoral every 3 days x3, ≤150 μl, next day; for Tumor inhibition rate of intraperitoneal injection / Tumor inhibition rate of intratumoral injection: Table 3, avg tumor volume 105 mm^3, 100 μl/mouse every 3 days x3, next day after last dose
Method: as §1
After anatomy, the tumor weight was measured and the tumor inhibition rate was calculated.

breast cancer 4T1 cells = assay: Tumor weight and tumor inhibition in BALB/c mice bearing breast cancer 4T1 cells; settings: for Tumor inhibition rate / Tumor weight (x ± s) / Tumor weight: intratumoral 150 μl/mouse every 3 days x3; for Intratumoral injection Tumor inhibition rate / Intratumoral injection Tumor weight: Table 10, avg tumor volume 336 mm^3, 150 μl/mouse every 3 days x3, 5th day after last dose;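 on all read-outs here: subcutaneous grafts in the right axilla, tumors excised and weighed after euthanasia, inhibition rate derived from group mean tumor weight versus the negative control group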
Method: In the following examples, unless otherwise specified, animal tests of subcutaneous transplantation tumors were performed in accordance with test guidelines issued by a drug administration authority. […] The subcutaneous transplantation was carried out according to a conventional method for subcutaneous inoculation of tumor cells. […] Items to be observed, measured and analyzed in the experiments included general status, body weight, food intake, tumor volume, tumor weight, thymus weight, spleen weight, and the like.
The tumor growth inhibition rate (abbreviated as tumor inhibition rate in the present invention) is calculated through the following equation:
wherein TW is an average tumor weight of a study group; CW is an average tumor weight of a negative control group.
The effects of the co-use of drugs (including efficacy and safety) can theoretically be based on the judgment of q:
q=actual combined effect/theoretical expected effect of simple addition.
When q=1, the actual combined effect meets the theoretical expectation, showing an additive effect; when q<1, the actual combined effect is weaker than the theoretical expectation, showing an antagonistic effect; and when q>1, the actual combined effect exceeds the theoretical expectation, showing a synergic effect. Unless otherwise specified, single-use efficacy of A or B (denoted as EA and EB respectively) and the actual combined efficacy of A/B (denoted as EA+B) are both tumor inhibition rates.
In one experiment, the test animal was a BALB/c mouse, the modeling cells were breast cancer 4T1 cells, and the transplantation tumor was modeled at 1×10^6 cells/mouse under the skin of the animal's right axilla. […] The experimental groups were divided into 1 negative control group (group 0) and 13 study groups (groups 1-13). They were all injected intratumorally. […] Each group was administered once every 3 days for a total of 3 times, each time at an injection dose of 150 μl//mouse. During the administration, general state of the animals and the degree of necrosis of normal tissues around the tumor after the administration were observed. On the 5th day after the administration was ended, the animals were euthanized, and the tumor weight was measured after anatomy to the animals. The tumor inhibition rate was calculated from the negative control group of each administration mode.
In another experiment, the test animal was a BALB/c mouse, the modeling cells were breast cancer 4T1 cells, and the transplantation tumor was modeled at 1×10^6 cells/mouse under the skin of the animal's right axilla. […] Each group was administered by intratumoral injection once every 3 days for a total of 3 times, each time at an injection dose of 150 μl/mouse. On the 5th day after the administration was ended, the animals were euthanized, and the tumor weight was measured after anatomy to the animals. The tumor inhibition rate was calculated from the negative control group.
In another experiment, the test animal was BALB/c mice, the modeling cells were breast cancer 4T1 cells, and the transplantation tumor was modeled at 1×10^6 cells/mouse under the skin of the animal's right axilla. […] Each group was administered by intratumoral injection once every 3 days for a total of 3 times, each time at an injection dose of 150 μl/mouse. On the 5th day after the administration was ended, the animals were euthanized, and the tumor weight was measured after anatomy to the animals. The tumor inhibition rate was calculated from the negative control group.
In another experiment, the test animal was a BALB/c mouse, the modeling cells were breast cancer 4T1 cells, and the transplantation tumor under the skin of the animal's right axilla was modeled at 1×10^6 cells/mouse.

[3] = Table 11, avg tumor volume 164 mm^3, intratumoral every 3 days x3, ≤150 μl, fifth day after last dose
[4] = Table 14, avg tumor volume 325 mm^3, 5th day
[5] = Table 6, avg tumor volume 153 mm^3, ≤120 μl/mouse every 3 days x3
[6] = Table 12, avg tumor volume 317 mm^3, 5th day
[7] = Table 17, avg tumor volume 317 mm^3, fifth day
[8] = Table 16, avg tumor volume 169 mm^3, intratumoral every 3 days x3, ≤150 μl/mouse, 5th day
[9] = Table 8, avg tumor volume 175 mm^3, ≤150 μl/mouse every 3 days x3

CC(=O)O [2% acetic acid, acetic acid]
Tumor inhibition rate [1, 3]: (46%)

N[C@@H](CCC(=O)N[C@@H](CS)C(=O)NCC(=O)O)C(=O)O [7.5% glutathione, Reduced glutathione]
Tumor inhibition rate [2]: 45%

Cl [0.5% hydrochloric acid, hydrochloric acid]
Tumor inhibition rate [1, 3]: (53%)

Cl [1% hydrochloric acid, hydrochloric acid]
Tumor inhibition rate [1, 3]: (68%)

O=C1OC2(c3cc(I)c(O)c(I)c3Oc3c2cc(I)c(O)c3I)c2c(Cl)c(Cl)c(Cl)c(Cl)c21 [5% Bengal Red, Bengal Red]
Tumor inhibition rate [1, 3]: (46%)

Cl.N[C@@H](CCC(=O)O)C(=O)O [0.15% glutamic hydrochloride, L-glutamic hydrochloride]
Tumor inhibition rate ([2]; hydrochloride): 16%

NCCCC[C@H](N)C(=O)O [20% lysine, L-lysine]
Tumor inhibition rate of intraperitoneal injection [2]: 53% | Tumor inhibition rate of intratumoral injection [2]: 1%

[Cl-].[K+] [2% KCl, potassium chloride]
Tumor inhibition rate (breast cancer 4T1 cells; [4]): 11% | Tumor weight (x ± s) (breast cancer 4T1 cells; [4]): 2.19 ± 0.31 g

N[C@@H](CCC(=O)N[C@@H](CS)C(=O)NCC(=O)O)C(=O)O [2% glutathione, Reduced glutathione]
Tumor inhibition rate [2]: 13%

CN(C)c1ccc2nc3ccc(=[N+](C)C)cc-3sc2c1 [0.35% methylene blue, Methylene blue]
Tumor inhibition rate [1, 3]: (18%)

CN(C)c1ccc2nc3ccc(=[N+](C)C)cc-3sc2c1 [0.25% methylene blue, Methylene blue]
Tumor inhibition rate [1, 3]: (11%)

CC(=O)O [10% acetic acid, acetic acid]
Intratumoral injection Tumor inhibition rate (breast cancer 4T1 cells): 53% | Intratumoral injection Tumor weight (breast cancer 4T1 cells): 0.60 ± 0.21 g

CN(C)c1ccc2nc3ccc(=[N+](C)C)cc-3sc2c1 [0.7% methylene blue, Methylene blue]
Intratumoral injection Tumor inhibition rate [1, 5]: 13% | Intratumoral injection Tumor weight [1, 5]: 2.02 ± 0.31 g | Tumor inhibition rate of intraperitoneal injection [1, 5]: 2%

N=C(N)NCCC[C@H](N)C(=O)O [1% arginine, L-arginine]
Tumor inhibition rate [2]: 17%

N=C(N)NCCC[C@H](N)C(=O)O [7.5% arginine, L-arginine]
Tumor inhibition rate [2]: 21%

N[C@@H](CCC(=O)N[C@@H](CS)C(=O)NCC(=O)O)C(=O)O [3% glutathione, Reduced glutathione]
Tumor inhibition rate [2]: 12%

[Na+].[OH-] [7% NaOH, sodium hydroxide]
Tumor inhibition rate (breast cancer 4T1 cells; [6]): 75% | Tumor weight (x ± s) (breast cancer 4T1 cells; [6]): 0.59 g

N=C(N)NCCC[C@H](N)C(=O)O [2.5% arginine, L-arginine]
Tumor inhibition rate (breast cancer 4T1 cells; [7]): 5% | Tumor weight (breast cancer 4T1 cells; [7]): 1.48 ± 0.32 g

Cl.N[C@@H](CCC(=O)O)C(=O)O [5% glutamic hydrochloride, L-glutamic hydrochloride]
Tumor inhibition rate ([2]; hydrochloride): 76%

Cl.N[C@@H](CCC(=O)O)C(=O)O [1% glutamic hydrochloride, L-glutamic hydrochloride]
Tumor inhibition rate ([2]; hydrochloride): 18%

Cl [2% hydrochloric acid, hydrochloric acid]
Tumor inhibition rate [1, 3]: (83%)

Cl.N[C@@H](CCC(=O)O)C(=O)O [0.5% glutamic hydrochloride, L-glutamic hydrochloride]
Tumor inhibition rate ([2]; hydrochloride): 11%

CC/C=C\C/C=C\C/C=C\C/C=C\C/C=C\C/C=C\CCC(=O)O [3% DHA, Docosahexaenoic acid (DHA)]
Tumor inhibition rate [1, 3]: (21%)

N=C(N)NCCC[C@H](N)C(=O)O [5% arginine, L-arginine]
Tumor inhibition rate [2]: 16% | Tumor inhibition rate (breast cancer 4T1 cells; [7]): 10% | Tumor weight (breast cancer 4T1 cells; [7]): 1.40 ± 0.26 g

O=c1[nH]cc(F)c(=O)[nH]1 [0.75% 5-fluorouracil, 5-fluorouracil]
Tumor inhibition rate [1, 8]: (63%)

O=c1[nH]cc(F)c(=O)[nH]1 [0.5% 5-fluorouracil, 5-fluorouracil]
Tumor inhibition rate [1, 8]: (59%)*

N[C@@H](CCC(=O)N[C@@H](CS)C(=O)NCC(=O)O)C(=O)O [5% glutathione, Reduced glutathione]
Tumor inhibition rate [2]: 32% | Tumor inhibition rate [1, 3]: (31%) | Tumor inhibition rate [1, 8]: (32%)

[Na+].[OH-] [0.5% NaOH, sodium hydroxide]
Tumor inhibition rate (breast cancer 4T1 cells; [6]): 31% | Tumor weight (x ± s) (breast cancer 4T1 cells; [6]): 1.54 g

Cl.N[C@@H](CCC(=O)O)C(=O)O [0.25% glutamic hydrochloride, L-glutamic hydrochloride]
Tumor inhibition rate ([2]; hydrochloride): 13%

O=C1OC2(c3cc(I)c(O)c(I)c3Oc3c2cc(I)c(O)c3I)c2c(Cl)c(Cl)c(Cl)c(Cl)c21 [10% Bengal Red, Bengal Red]
Tumor inhibition rate [1, 3]: (63%)

N[C@@H](CCC(=O)N[C@@H](CS)C(=O)NCC(=O)O)C(=O)O [12.5% glutathione, Reduced glutathione]
Tumor inhibition rate [2]: 66%

CC/C=C\C/C=C\C/C=C\C/C=C\C/C=C\C/C=C\CCC(=O)O [5% DHA, Docosahexaenoic acid (DHA)]
Intratumoral injection Tumor inhibition rate [1, 5]: 27% | Intratumoral injection Tumor weight [1, 5]: 1.69 ± 0.33 g | Tumor inhibition rate of intraperitoneal injection [1, 5]: 4% | Tumor inhibition rate [1, 3]: (28%)

N=C(N)NCCC[C@H](N)C(=O)O [3% arginine, L-arginine]
Tumor inhibition rate [2]: 19%

N=C(N)NCCC[C@H](N)C(=O)O [2% arginine, L-arginine]
Tumor inhibition rate [2]: 15%

N=C(N)NCCC[C@H](N)C(=O)O [4% arginine, L-arginine]
Tumor inhibition rate (breast cancer 4T1 cells; [6]): 2% | Tumor weight (x ± s) (breast cancer 4T1 cells; [6]): 2.31 g

Cl.N[C@@H](CCC(=O)O)C(=O)O [2% glutamic hydrochloride, L-glutamic hydrochloride]
Tumor inhibition rate ([2]; hydrochloride): 49%

N=C(N)NCCC[C@H](N)C(=O)O [10% arginine, L-arginine]
Tumor inhibition rate [2]: 43% | Tumor inhibition rate (breast cancer 4T1 cells; [6]): 19% | Tumor weight (x ± s) (breast cancer 4T1 cells; [6]): 1.91 g | Tumor inhibition rate (breast cancer 4T1 cells; [7]): 21% | Tumor weight (breast cancer 4T1 cells; [7]): 1.23 ± 0.31 g | Tumor inhibition rate [1, 3]: (43%)

O=c1[nH]cc(F)c(=O)[nH]1 [1.5% 5-fluorouracil, 5-fluorouracil]
Tumor inhibition rate [1, 8]: (69%)

N[C@@H](CCC(=O)N[C@@H](CS)C(=O)NCC(=O)O)C(=O)O [1% glutathione, Reduced glutathione]
Tumor inhibition rate [2]: 11%

CC(=O)O [20% acetic acid, acetic acid]
Tumor inhibition rate [1, 3]: (92%)**

NCC(=O)O [20% glycine, Glycine]
Tumor inhibition rate of intraperitoneal injection [2]: 52% | Tumor inhibition rate of intratumoral injection [2]: 4% | Intratumoral injection Tumor inhibition rate (breast cancer 4T1 cells): 18% | Intratumoral injection Tumor weight (breast cancer 4T1 cells): 1.05 ± 0.32 g | Intratumoral injection Tumor inhibition rate [1, 9]: 54% | Intratumoral injection Tumor weight [1, 9]: 1.17 ± 0.28 g | Tumor inhibition rate of intraperitoneal injection [1, 9]: 2%

CC(=O)O [1% acetic acid, acetic acid]
Tumor inhibition rate [1, 3]: (26%)

CC(=O)O [3.5% acetic acid, acetic acid]
Intratumoral injection Tumor inhibition rate [1, 5]: 64% | Intratumoral injection Tumor weight [1, 5]: 0.84 ± 0.23 g | Tumor inhibition rate of intraperitoneal injection [1, 5]: 6%

Cl [0.25% hydrochloric acid, hydrochloric acid]
Tumor inhibition rate [1, 3]: (31%)

N[C@@H](CCC(=O)N[C@@H](CS)C(=O)NCC(=O)O)C(=O)O [2.5% glutathione, Reduced glutathione]
Tumor inhibition rate [1, 3]: (12%)* | Tumor inhibition rate [1, 8]: (12%)
